These molecules were tested against HCV RdRp (NS5B) (UniProt P26663).
Format: biochemical, hepatitis C virus

Chain of HCV RdRp (NS5B) (P26663 whole entry, looked up): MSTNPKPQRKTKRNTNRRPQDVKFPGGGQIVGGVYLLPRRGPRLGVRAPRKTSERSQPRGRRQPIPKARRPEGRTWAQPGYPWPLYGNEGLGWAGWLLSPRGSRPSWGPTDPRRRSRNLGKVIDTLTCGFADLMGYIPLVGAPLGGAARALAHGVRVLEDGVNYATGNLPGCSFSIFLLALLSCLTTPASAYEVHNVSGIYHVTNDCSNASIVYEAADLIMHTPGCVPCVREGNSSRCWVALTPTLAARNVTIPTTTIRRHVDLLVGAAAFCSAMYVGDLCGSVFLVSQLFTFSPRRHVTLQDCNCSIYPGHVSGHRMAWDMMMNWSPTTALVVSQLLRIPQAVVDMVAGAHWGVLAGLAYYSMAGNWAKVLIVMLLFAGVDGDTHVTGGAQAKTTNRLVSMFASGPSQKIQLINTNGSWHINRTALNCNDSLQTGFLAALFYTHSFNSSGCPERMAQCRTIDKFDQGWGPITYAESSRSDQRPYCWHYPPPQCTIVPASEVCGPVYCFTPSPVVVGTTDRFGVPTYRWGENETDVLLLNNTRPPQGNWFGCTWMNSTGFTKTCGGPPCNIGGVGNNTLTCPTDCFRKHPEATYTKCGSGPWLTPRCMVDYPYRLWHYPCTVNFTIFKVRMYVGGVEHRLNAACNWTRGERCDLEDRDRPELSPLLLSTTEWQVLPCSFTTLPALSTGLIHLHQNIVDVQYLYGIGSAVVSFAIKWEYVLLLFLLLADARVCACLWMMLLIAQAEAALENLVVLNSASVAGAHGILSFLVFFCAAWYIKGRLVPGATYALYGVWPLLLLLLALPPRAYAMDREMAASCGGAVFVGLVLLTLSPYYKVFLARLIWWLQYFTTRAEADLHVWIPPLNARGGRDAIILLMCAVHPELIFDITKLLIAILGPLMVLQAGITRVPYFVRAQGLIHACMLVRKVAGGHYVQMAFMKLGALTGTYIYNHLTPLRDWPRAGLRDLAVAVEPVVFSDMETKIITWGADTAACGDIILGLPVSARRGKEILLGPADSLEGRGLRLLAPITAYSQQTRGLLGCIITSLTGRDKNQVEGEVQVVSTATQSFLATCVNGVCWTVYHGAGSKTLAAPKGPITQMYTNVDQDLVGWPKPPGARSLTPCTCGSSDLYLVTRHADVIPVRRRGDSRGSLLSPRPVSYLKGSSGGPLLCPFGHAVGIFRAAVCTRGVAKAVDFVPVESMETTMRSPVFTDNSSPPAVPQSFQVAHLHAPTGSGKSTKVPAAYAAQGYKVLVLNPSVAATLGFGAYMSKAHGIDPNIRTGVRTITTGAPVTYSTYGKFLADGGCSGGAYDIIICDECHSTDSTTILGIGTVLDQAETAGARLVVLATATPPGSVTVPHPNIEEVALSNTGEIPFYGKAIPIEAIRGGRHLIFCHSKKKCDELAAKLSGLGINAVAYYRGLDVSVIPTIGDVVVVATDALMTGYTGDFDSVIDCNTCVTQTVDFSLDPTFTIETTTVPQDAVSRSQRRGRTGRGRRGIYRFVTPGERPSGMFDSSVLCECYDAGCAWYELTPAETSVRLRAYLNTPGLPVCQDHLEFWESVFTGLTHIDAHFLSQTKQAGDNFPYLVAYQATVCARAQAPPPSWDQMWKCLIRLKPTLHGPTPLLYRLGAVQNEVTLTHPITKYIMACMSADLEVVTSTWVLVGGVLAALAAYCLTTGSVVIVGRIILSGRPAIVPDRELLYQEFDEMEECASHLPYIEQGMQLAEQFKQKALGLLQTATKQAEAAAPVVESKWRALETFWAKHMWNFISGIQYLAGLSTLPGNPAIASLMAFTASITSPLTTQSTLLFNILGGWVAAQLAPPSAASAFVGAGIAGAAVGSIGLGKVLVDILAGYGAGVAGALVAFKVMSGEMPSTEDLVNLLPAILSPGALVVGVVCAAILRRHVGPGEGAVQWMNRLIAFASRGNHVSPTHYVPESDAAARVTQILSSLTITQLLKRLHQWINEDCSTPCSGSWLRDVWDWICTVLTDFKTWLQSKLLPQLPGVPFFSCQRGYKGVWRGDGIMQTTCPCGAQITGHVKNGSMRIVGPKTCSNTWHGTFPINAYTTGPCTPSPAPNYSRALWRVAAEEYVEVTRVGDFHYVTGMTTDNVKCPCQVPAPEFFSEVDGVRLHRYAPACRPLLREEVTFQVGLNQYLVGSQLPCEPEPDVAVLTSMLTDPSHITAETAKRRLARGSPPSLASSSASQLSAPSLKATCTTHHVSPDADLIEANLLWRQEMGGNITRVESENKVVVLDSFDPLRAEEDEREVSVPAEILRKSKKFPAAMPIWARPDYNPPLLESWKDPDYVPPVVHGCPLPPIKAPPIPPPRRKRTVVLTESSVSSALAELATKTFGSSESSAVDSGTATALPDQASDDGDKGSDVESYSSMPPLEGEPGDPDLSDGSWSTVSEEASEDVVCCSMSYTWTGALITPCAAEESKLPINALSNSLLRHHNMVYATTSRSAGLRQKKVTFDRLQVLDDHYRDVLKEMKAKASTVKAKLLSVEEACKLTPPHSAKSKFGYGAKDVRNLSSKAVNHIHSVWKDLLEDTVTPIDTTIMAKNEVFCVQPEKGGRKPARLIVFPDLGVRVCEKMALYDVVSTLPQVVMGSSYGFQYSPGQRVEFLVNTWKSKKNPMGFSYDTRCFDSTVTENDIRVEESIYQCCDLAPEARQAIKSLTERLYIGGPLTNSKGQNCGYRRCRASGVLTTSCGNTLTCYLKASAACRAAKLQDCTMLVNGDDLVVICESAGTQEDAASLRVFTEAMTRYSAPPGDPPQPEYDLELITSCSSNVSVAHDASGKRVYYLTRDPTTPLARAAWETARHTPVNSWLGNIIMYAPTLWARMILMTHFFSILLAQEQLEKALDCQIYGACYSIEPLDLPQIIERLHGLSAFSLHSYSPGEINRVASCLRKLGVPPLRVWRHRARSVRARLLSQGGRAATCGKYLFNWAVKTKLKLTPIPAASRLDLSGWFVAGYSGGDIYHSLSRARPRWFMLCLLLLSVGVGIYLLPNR

SMILES	IC50
Cc1ccc(NC(=O)C(CCCCN)NC(=O)CN(C)Cc2ccccc2)cc1 [Compound 353, (S)-6-AMINO-2-[2-(BENZYL-METHYL-AMINO)-ACETYLAMINO]-HEXANOIC ACID P-TOLYLAMIDE]	> 50 µM
CC(=O)NCC(=O)N1CCN(C(=O)OCC2c3ccccc3-c3ccccc32)C(CC(=O)Nc2ccc(C)cc2)C1 (centres unmarked) [Compound 186, 4-(2-ACETYLAMINO-ACETYL)-2-(P-TOLYLCARBAMOYL-METHYL)-PIPERAZINE-1-CARBOXYLIC ACID 9H-FLUOREN-9-YLMETHYL ESTER]	> 50 µM
Cc1ccc(NC(=O)[C@H](CCCCN)NC(=O)Nc2cccc(OCc3ccccc3)c2)cc1 [Compound 204, (S)-6-AMINO-2-[3-(3-BENZYLOXY-PHENYL)-UREIDO]-HEXANOIC ACID P-TOLYLAMIDE]	> 50 µM
Cc1ccc(NC(=O)C(CCCCN)NC(=O)c2ccc3c4c(cccc24)CC3)cc1 [Compound 67, (S)-ACENAPHTHENE-5-CARBOXYLIC ACID (5-AMINO-1-P-TOLYLCARBAMOYL-PENTYL)-AMIDE]	> 50 µM
Cc1ccc(NC(=O)C(Cc2c[nH]c3ccccc23)NC(=O)OCC2c3ccccc3-c3ccccc32)cc1 [Compound 378, (S)-[2-(1H-INDOL-3-YL)-1-P-TOLYLCARBAMOYL-ETHYL]-CARBAMIC ACID 9H-FLUOREN-9-YLMETHYL ESTER]	> 50 µM
NCCCCC(NC(=O)Cc1cccc2ccccc12)C(=O)Nc1ccc(CN(C(=O)c2ccco2)C2CCCCC2)cc1 (stereo in doubt) [Compound 25, (S)-FURAN-2-CARBOXYLIC ACID {4-[6-AMINO-2-(2-NAPHTHALEN-1-YL-ACETYLAMINO)-HEXANOYLAMINO]-BENZYL}-CYCLOHEXYL-AMIDE]	10 to 50 µM
CCN(CC)c1ccc(NC(=O)[C@H](CCCCN)NC(=O)OCC2c3ccccc3-c3ccccc32)cc1 [Compound 106, (S)-[5-AMINO-1-(4-DIETHYLAMINO-PHENYLCARBAMOYL)-PENTYL]-CARBAMIC ACID 9H-FLUOREN-9-YLMETHYL ESTER]	> 50 µM
Cc1ccc(NC(=O)C(CCCCN)NC(=O)Nc2ccc(N3CCCCC3)cc2)cc1 [Compound 269, (S)-6-AMINO-2-[3-(4-PIPERIDIN-1-YL-PHENYL)-UREIDO]-HEXANOIC ACID P-TOLYLAMIDE]	> 50 µM
COc1cccc(NCC(=O)N[C@@H](CCCCN)C(=O)Nc2ccc(C)cc2)c1 [Compound 358, (S)-6-AMINO-2-[2-(3-METHOXY-PHENYLAMINO)-ACETYLAMINO]-HEXANOIC ACID P-TOLYLAMIDE]	10 to 50 µM
O=C(Nc1ccc(C2CCCCC2)cc1)C1CN(C(=O)OCC2c3ccccc3-c3ccccc32)CCN1 (centres unmarked) [Compound 157, 3-(4-CYCLOHEXYL-PHENYLCARBAMOYL)-PIPERAZINE-1-CARBOXYLIC ACID 9H-FLUOREN-9-YLMETHYL ESTER]	> 50 µM
Cc1ccc(NC(=O)C(CC(=O)O)NC(=O)OCC2c3ccccc3-c3ccccc32)cc1 [Compound 370, (S)-3-(9H-FLUOREN-9-YLMETHOXYCARBONYLAMINO)-NR-P-TOLYL-[…]]	> 50 µM
NCCCC[C@@H](NC(=O)OCC1c2ccccc2-c2ccccc21)C(=O)Nc1ccc(-c2ccccc2)cc1 [Compound 144, (R)-[5-AMINO-1-(BIPHENYL-4-YLCARBAMOYL)-PENTYL]-CARBAMIC ACID 9H-FLUOREN-9-YLMETHYL ESTER]	< 10 µM
Cc1ccc(NC(=O)[C@H](CCCCN)NC(=O)NC2c3ccccc3-c3ccccc32)cc1 [Compound 126, (S)-6-AMINO-2-[3-(9H-FLUOREN-9-YL)-UREIDO]-HEXANOIC ACID P-TOLYLAMIDE]	< 10 µM
Cc1ccc(NC(=O)C(CCCCN)NC(=O)Cc2ccc(-c3ccccc3)cc2)cc1 [Compound 50, (S)-6-AMINO-2-(2-BIPHENYL-4-YL-ACETYLAMINO)-HEXANOIC ACID P-TOLYLAMIDE]	> 50 µM
NCCCCCCNC(=O)C(NC(=O)Nc1ccc(OCc2ccccc2)cc1)c1ccccc1 [Compound 320, (R)-NR-(6-AMINO-HEXYL)-2-[3-(4-BENZYLOXY-PHENYL)-UREIDO]-2-PHENYL-ACETAMIDE]	< 10 µM
NCCCC[C@H](NC(=O)OCC1c2ccccc2-c2ccccc21)C(=O)Nc1ccc(C2CCCCC2)cc1 [Compound 107, (S)-[5-AMINO-1-(4-CYCLOHEXYL-PHENYLCARBAMOYL)-PENTYL]-CARBAMIC ACID 9H-FLUOREN-9-YLMETHYL ESTER]	< 10 µM
Cc1ccccc1NC(=O)C(CCCCN)NC(=O)OCC1c2ccccc2-c2ccccc21 [Compound 45, (S)-(5-AMINO-1-O-TOLYLCARBAMOYL-PENTYL)-CARBAMIC ACID 9H-FLUOREN-9-YLMETHYL ESTER]	> 50 µM
Cc1ccc(NC(=O)[C@H](CCCCN)NC(=O)CNCc2ccc(Cl)cc2)cc1 [Compound 349, (S)-6-AMINO-2-[2-(4-CHLORO-BENZYLAMINO)-ACETYLAMINO]-HEXANOIC ACID P-TOLYLAMIDE]	> 50 µM
CC(C)(C)OC(=O)NCCCC[C@H](N)C(=O)N(Cc1ccccc1)C1CCCCC1 [Compound 34, (S)-[5-AMINO-5-(BENZYL-CYCLOHEXYL-CARBAMOYL)-PENTYL]-CARBAMIC ACID TERT-BUTYL ESTER]	10 to 50 µM

SMILES	IC50
N[C@@H](Cc1c[nH]c2ccccc12)C(=O)NCCCC[C@H](NC(=O)OCC1c2ccccc2-c2ccccc21)C(=O)Nc1ccc(CN(C(=O)c2ccco2)C2CCCCC2)cc1 [Compound 35, (S)-[5-[2-(S)-AMINO-3-(1H-INDOL-3-YL)-PROPIONYLAMINO]-1-(4-{[CYCLOHEXYL-(FURAN-2-CARBONYL)-AMINO]-METHYL}-PHENYLCARBAMOYL)-PENTYL]-CARBAMIC ACID 9H-FLUOREN-9-YLMETHYL ESTER]	< 10 µM
Cc1ccc(NC(=O)C(CCCCN)NC(=O)CNCc2ccccc2C(F)(F)F)cc1 [Compound 350, (S)-6-AMINO-2-[2-(2-TRIFLUOROMETHYL-BENZYLAMINO)-ACETYLAMINO]-HEXANOIC ACID P-TOLYLAMIDE]	> 50 µM
Cc1ccc(NC(=O)C(CCCCN)NC(=O)NCCc2ccccc2)cc1 [Compound 134, (S)-6-AMINO-2-(3-PHENETHYL-UREIDO)-HEXANOIC ACID P-TOLYLAMIDE]	> 50 µM
Cc1ccc(NC(=O)[C@H](CCCCN)NC(=O)Nc2ccc(NCc3ccc(F)cc3)cc2)cc1 [Compound 225, (S)-6-AMINO-2-{3-[4-(4-FLUORO-BENZYLAMINO)-PHENYL]-UREIDO}-HEXANOIC ACID P-TOLYLAMIDE]	> 50 µM
Cc1ccc(NC(=O)C(CCCCN)NC(=O)Nc2ccc3ccccc3c2)cc1 [Compound 72, (S)-6-AMINO-2-(3-NAPHTHALEN-2-YL-UREIDO)-HEXANOIC ACID P-TOLYLAMIDE]	10 to 50 µM
Cc1ccc(NC(=O)[C@H](CCCCN)NC(=O)Nc2ccc3c(c2)OCCO3)cc1 [Compound 213, (S)-6-AMINO-2-[3-(2,3-DIHYDRO-BENZO[1,4]DIOXIN-6-YL)-UREIDO]-HEXANOIC ACID P-TOLYLAMIDE]	> 50 µM
Cc1ccc(NC(=O)C(CCCNC(=O)C2CCCN2)NC(=O)OCC2c3ccccc3-c3ccccc32)cc1 [Compound 220, (S)-{4-[R-(PYRROLIDINE-2-CARBONYL)-AMINO]-1-P-TOLYLCARBAMOYL-BUTYL}-CARBAMIC ACID 9H-FLUOREN-9-YLMETHYL ESTER]	> 50 µM
NCCCC[C@H](NC(=O)Nc1ccc(OCc2ccccc2)cc1)C(=O)NCc1ccco1 [Compound 302, (S)-6-AMINO-2-[3-(4-BENZYLOXY-PHENYL)-UREIDO]-HEXANOIC ACID (FURAN-2-YLMETHYL)-AMIDE]	> 50 µM
NCCCC[C@@H](NC(=O)Nc1cccc2ccccc12)C(=O)Nc1ccc(CN(C(=O)c2ccco2)C2CCCCC2)cc1 [Compound 32, (R)-FURAN-2-CARBOXYLIC ACID {4-[6-AMINO-2-(3-NAPHTHALEN-1-YL-UREIDO)-HEXANOYLAMINO]-BENZYL}-CYCLOHEXYL-AMIDE]	> 50 µM
Cc1ccc(NC(=O)C(CCCCN)NC(=O)Nc2ccc(OC(C)c3ccccc3)cc2)cc1 [Compound 277, (2S)-6-AMINO-2-{3-[4-(1-PHENYL-ETHOXY)-PHENYL]-UREIDO}-HEXANOIC ACID P-TOLYLAMIDE]	> 50 µM
Cc1ccc(NC(=O)C(CCNC(=O)CN)NC(=O)OCC2c3ccccc3-c3ccccc32)cc1 [Compound 221, (S)-[3-(2-AMINO-ACETYLAMINO)-1-P-TOLYLCARBAMOYL-PROPYL]-CARBAMIC ACID 9H-FLUOREN-9-YLMETHYL ESTER]	> 50 µM
Cc1ccc(NC(=O)[C@H](CCCCN)NC(=O)CNc2cccc(C)c2)cc1 [Compound 355, (S)-6-AMINO-2-(2-M-TOLYLAMINO-ACETYLAMINO)-HEXANOIC ACID P-TOLYLAMIDE]	> 50 µM
O=C(CC1CNCCN1C(=O)Nc1ccc(-c2ccccc2)cc1)Nc1ccc(C2CCCCC2)cc1 (centres unmarked) [Compound 161, 2-[(4-CYCLOHEXYL-PHENYLCARBAMOYL)-METHYL]-PIPERAZINE-1-CARBOXYLIC ACID BIPHENYL-4-YLAMIDE]	10 to 50 µM
Cc1ccc(NC(=O)[C@H](CCCCN)NC(=O)CNCc2ccccc2F)cc1 [Compound 344, (S)-6-AMINO-2-[2-(2-FLUORO-BENZYLAMINO)-ACETYLAMINO]-HEXANOIC ACID P-TOLYLAMIDE]	> 50 µM
COc1ccc(-c2ccccc2)cc1NC(=O)NC(CCCCN)C(=O)Nc1ccc(C)cc1 [Compound 93, (S)-6-AMINO-2-[3-(4-METHOXY-BIPHENYL-3-YL)-UREIDO]-HEXANOIC ACID P-TOLYLAMIDE]	> 50 µM
NCCC[C@@H](NC(=O)Nc1ccc2c(c1)Cc1ccccc1-2)C(=O)Nc1ccc(C2CCCCC2)cc1 [Compound 203, (R)-5-AMINO-2-[3-(9H-FLUOREN-2-YL)-UREIDO]-PENTANOIC ACID (4-CYCLOHEXYL-PHENYL)-AMIDE]	< 10 µM
Cc1ccc(NC(=O)CC2CN(C(=O)C(C)N)CCN2C(=O)OCC2c3ccccc3-c3ccccc32)cc1 [Compound 184, 4-((S)-2-AMINO-PROPIONYL)-2-(P-TOLYLCARBAMOYL-METHYL)-PIPERAZINE-1-CARBOXYLIC ACID 9H-FLUOREN-9-YLMETHYL ESTER]	> 50 µM
Cc1ccc(NC(=O)C(CCCN)NC(=O)OCC2c3ccccc3-c3ccccc32)cc1 [Compound 101, (S)-(4-AMINO-1-P-TOLYLCARBAMOYL-BUTYL)-CARBAMIC ACID 9H-FLUOREN-9-YLMETHYL ESTER]	> 50 µM
CC(C)NC(=O)[C@H](CCCCN)NC(=O)Nc1ccc(OCc2ccccc2)cc1 [Compound 291, (S)-6-AMINO-2-[3-(4-BENZYLOXY-PHENYL)-UREIDO]-HEXANOIC ACID ISOPROPYLAMIDE]	> 50 µM
